In brackets after ≈: the same amount, converted by molar mass. Like-named read-outs stand apart in the source and are kept apart here. Non-standard residues stand in square brackets, D forms with d. No end group written: not given here.
Experiments:
S. aureus [1] = test system: S. aureus
Protocol: (§2) Minimum inhibitory concentration (MIC) and minimum bactericidal concentration (MBC). […] The suspended AMPs were then loaded into wells of 96-well microplates and incubated at 37° C. overnight with gentle agitation at 100 rpm. The absorbance was measured by SpectraMax 190 microplate reader at 600 nm. The remaining cfu in the mixture was counted after plating on agar plate. Minimum inhibitory concentration (MIC) was defined as the lowest AMP concentration to keep the solution with the same absorbance as that of culture medium without bacteria. […] Alternatively, the MIC of coated AMPs was also determined. […] The free form AMPs as well as surfactant were dissolved in 200 μl sterile media (cell culture medium or human urine) and used as a control for quantitation. The potency of antimicrobial activity was expressed as the dilution folds to reach the MIC, in which no bacteria grow in the medium. At least three independent experiments were performed to determine the value.

S. aureus [2] = assay: Inhibition zone assay on agar plate; type: cell-based, Staphylococcus aureus; conditions: free AMP, 2 μl dotted on agar plate
Protocol: (§1) Inhibition zone. Bacteria were cultured in Luria-Bertani broth and plated on Luria-Bertani agar for E. coli (ATCC 23502) and Pseudomonas aeruginosa (ATCC 27853) at 37° C. Staphylococcus aureus (ATCC 6538P) was cultured and plated in/on tryptic soy broth/agar. Candida albicans (ATCC 14053) were cultured in/on YM broth/agar at 30° C. Five ml of low melting agar (1%) mixed with 100 μl of overnight-cultured bacteria was spread on top of 1% regular agar plate. Two μl of antimicrobial peptides at various concentrations were dotted on the top layer of microbe-containing agar plates and incubated overnight for the development of inhibition zone.

[3] = type: physicochemical; set-up: time stable in human urine: unit not given here; conditions: for time stable in 10% FBS: single AMP coated by SDBS on polystyrene; for time stable in human urine: coated onto the microplate by SDS, examined under the microscope; for time stable in urine: single AMP coated by SDS (two-step) on polystyrene, SDS-PAGE; for stability in urine: one-day incubation
[4] = test system: Human bladder carcinoma cell line (NTUB1); assay: Cytotoxicity assay (WST-1); conditions: for Potency (x) Cytotoxicity to NTUB1 IC50: dilution fold, free form, 1× = 8 μg AMP, 16 μg PXB and/or 25 μg SDS in 200 μl
Protocol: NTUB1 cells were maintained at 37° C. in a humidified incubator under 5% CO2 atmosphere in RPMI1640 containing 10% FBS, 100 U/ml penicillin and 100 μg/ml streptomycin. The NTUB1 cells were seeded in the respective wells of a 96-well plate at a density of 1.5×10^4 cells/1000 for 24 hr. The cells were further incubated in 2000 free antimicrobial/surfactant or components released from silicone disc after overnight incubation. After 20 hr incubation, 900 of fresh culture medium and 100 of WST-1 agent (Roche, Basel, Switzerland) were added to the drained wells and incubated for two 2 hr before measuring the absorbance by SpectraMax 190 microplate reader at 450 nm. Percent of cytotoxicity was determined using the following formula: % cytotoxicity=[(A450sample−A450positive control)/(A450negative control−A450positive control)]. Positive control was NTUB1 cells only, whereas negative control was medium without cells.

mouse red blood cells = assay: Hemolytic assay; conditions: dilution fold; free form, 1× = 8 μg AMP, 16 μg PXB and/or 25 μg SDS in 200 μl
Protocol: The blood cells were pelleted and rinsed three times with 10% FBS in RPMI1640, and re-suspended in the same buffer. The erythrocytes (1.5×10^7 cells) were then added to the solution containing free dual AMP/surfactant or overnight released components from silicone discs in 200 μl and incubation at 37° C. for one hr. The supernatants (150 μl) after centrifugation were transferred to 96-well plate for the measurement of the absorbance of released hemoglobin by SpectraMax 190 microplate reader (Molecular Devices, CA, USA) at 414 nm. Percent hemolysis was calculated using the following formula: % hemolysis=[(A414sample−A414medium)/(A4140.1% Triton-X 100−A414medium)]. Zero and 100% hemolysis were determined in medium and 0.1% Triton-X 100, respectively.

E. coli ATCC 23502 = assay: Potency of antimicrobial activity as dilution folds to reach the MIC; type: cell-based; conditions: for Potency (x) MIC to E. coli, Serum / Potency (x) MIC to E. coli, Urine: dilution fold, free form, 1× = 8 μg AMP; for Potency (x) MIC to E. coli, Serum: 16 μg PXB and/or 25 μg SDS in 200 μl serum; for Potency (x) MIC to E. coli, Urine: 16 μg PXB and/or 25 μg SDS in 200 μl urine
Protocol: Minimum inhibitory concentration (MIC) and minimum bactericidal concentration (MBC). […] Alternatively, the MIC of coated AMPs was also determined. […] The urine and serum were changed daily. Two μl of the incubation urine or serum being replaced (containing released/free SAAP159+PXB) or its dilutions were dotted onto the top layer of the microbe-containing agar plates and incubated at 37° C. overnight, following which the assessment of formation of growth inhibition zone was carried out. Defined amounts of mixed antimicrobials were used as a standard for the quantitation of the released antimicrobials. The amount of antimicrobial mixture which was able to form visible inhibition zone on the agar plate is defined as one unit of antimicrobial activity. […] The absorbance at 600 nm was then determined by SpectraMax 190 microplate reader. Minimal inhibitory concentration (MIC), which is defined as the concentration of (diluted) sample serum or urine which is able to keep the absorbance of the bacteria-containing media no different to that of media only, was determined. The potency of antimicrobial activity, which is defined as the dilution fold of antimicrobial-containing urine or serum that achieves MIC, was also determined.

P. aeruginosa 27853 = assay: Inhibition zone assay on agar plate; type: cell-based, Pseudomonas aeruginosa; conditions: free AMP, 2 μl dotted on agar plate
Protocol: as §1

[5] = free AMP, LB, 3.5 × 10^5 cfu/ml

Protocol for E. coli 23502: as §2

**Q.** With `CC[C@H](C)[C@H](NC(=O)[C@H](CCCNC(=N)N)NC(=O)[C@H](CCCNC(=N)N)NC(=O)[C@H](CC(C)C)NC(=O)[C@H](Cc1c[nH]c2ccccc12)NC(=O)[C@H](C)NC(=O)[C@H](CCCCN)NC(=O)[C@@H](NC(=O)[C@H](CCCNC(=N)N)NC(=O)[C@H](CCCNC(=N)N)NC(=O)[C@H](CC(C)C)NC(=O)[C@@H](N)Cc1c[nH]c2ccccc12)[C@@H](C)CC)C(=O)N[C@@H](CCCCN)C(=O)N[C@@H](C)C(=O)O` [RRIKA] as the compound, how does the MBC (E. coli 23502; 23502) read?
**A.** 128 µg/mL (≈ 68.6 µM)

**Q.** What about the MIC (E. coli 23502; 23502) of the same compound?
**A.** 128 µg/mL (≈ 68.6 µM)

**Q.** And the MBC (S. aureus [1])?
**A.** 128 µg/mL (≈ 68.6 µM)

**Q.** What about the MIC (S. aureus [1]) of the same compound?
**A.** 64 µg/mL (≈ 34.3 µM)

**Q.** With H-RRLIRLILRLLR-NH2 [RR12] as the compound, how does the “antimicrobial activity by inhibition zone (in words)” value (S. aureus [2]) read?
**A.** very active

**Q.** And the MBC (E. coli 23502; 23502)?
**A.** 4 µg/mL

**Q.** And the MIC (E. coli 23502; 23502)?
**A.** 4 µg/mL

**Q.** And the MBC (S. aureus [1])?
**A.** 4 µg/mL

**Q.** What about the MIC (S. aureus [1]) of the same compound?
**A.** 4 µg/mL

**Q.** And the “time stable in 10% FBS” value [3]?
**A.** two

**Q.** With “GRFKRFRKKFKKLFKKLSPVIPLLHLG-OH (All in D form) (G[dR][dF][dK][dR][dF][dR][dK][dK][dF][dK][dK][dL][dF][dK][dK][dL][dS][dP][dV][dI][dP][dL][dL][dH][dL]G-OH) [D-BMAP27]” as the compound, how does the “time stable in human urine” value [3] read?
**A.** at least three

**Q.** Which “time stable in human urine” value [3] does the source give for “GRFKRFRKKFKKLFKKLSPVIPLLHLG (G[dR][dF][dK][dR][dF][dR][dK][dK][dF][dK][dK][dL][dF][dK][dK][dL][dS][dP][dV][dI][dP][dL][dL][dH][dL]G) [L-BMAP27]” here?
**A.** at least three

**Q.** Which “time stable in 10% FBS” value [3] does the source give for “H-FIHHIIGGLFSAGKAIHRLIRRRRR-OH [TP4-A12,15I]” here?
**A.** two

**Q.** For Polymyxin B [PXB, reference compound], which “Potency (x) Cytotoxicity to NTUB1 IC50” value [4] is on record?
**A.** <1 x

**Q.** What about the “Potency (x) Hemolysis of RBC HC50” value (mouse red blood cells) of the same compound?
**A.** <1 x

**Q.** What about the “Potency (x) MIC to E. coli, Serum” value (E. coli ATCC 23502) of the same compound?
**A.** 512 x

**Q.** And the “Potency (x) MIC to E. coli, Urine” value (E. coli ATCC 23502)?
**A.** 128 x

**Q.** What does the source list for `CCCCCCCCCCCCOS(=O)(=O)[O-].[Na+]` [SDS, sodium dodecyl sulfate]?
**A.** cytotoxicity toward NTUB1 cells ([4]; 25 μg in 200 μl): 99%; Potency (x) Cytotoxicity to NTUB1 IC50 [4]: 1-2 x; cytotoxicity toward NTUB1 cells ([4]; half of the total amount (of 25 μg in 200 μl)): 35%; cytotoxicity toward human bladder cells (NTUB1) (in words) ([4]; maximal amount that may be coated and released (SDS 14 μg; AMP pairs 12 μg each) in 200 μl): low cytotoxicity; Potency (x) Hemolysis of RBC HC50 (mouse red blood cells): 1-2 x; Potency (x) MIC to E. coli, Serum (E. coli ATCC 23502): <1 x; Potency (x) MIC to E. coli, Urine (E. coli ATCC 23502): <1 x; bactericidal activity against E. coli 23502 in urine or in 10% FBS (E. coli ATCC 23502; surfactant alone up to maximal amount (14 μg SDS, 25 μg SDBS) in 200 μl): did not exert bactericidal activity

**Q.** For RFRRLRKKWRKRLKKI-NH2 [T9W], which “antimicrobial activity by inhibition zone (in words)” value (P. aeruginosa 27853) is on record?
**A.** preferentially killed

**Q.** And the MBC (E. coli 23502; 23502)?
**A.** >512 µg/mL

**Q.** What about the MIC (E. coli 23502; 23502) of the same compound?
**A.** >512 µg/mL

**Q.** And the MBC (S. aureus [1])?
**A.** >512 µg/mL

**Q.** What about the MIC (S. aureus [1]) of the same compound?
**A.** >512 µg/mL

**Q.** What about the “time stable in urine” value [3] of the same compound?
**A.** 6 days

**Q.** Which MBC (E. coli 23502; 23502) does the source give for LKRLYKRVFRLLKRYYRQLRRPVR-OH [SAAP159] here?
**A.** 64 µg/mL

**Q.** What about the MIC (E. coli 23502; 23502) of the same compound?
**A.** 64 µg/mL

**Q.** What about the MBC (S. aureus [1]) of the same compound?
**A.** >512 µg/mL

**Q.** What about the MIC (S. aureus [1]) of the same compound?
**A.** 512 µg/mL

**Q.** What about the “time stable in human urine” value [3] of the same compound?
**A.** at least three

**Q.** And the “time stable in urine” value [3]?
**A.** 12 days

**Q.** For KWKLFKKIGIGAVLKVLKKG-NH2 [T18,19K], which MBC (E. coli 23502; [5]) is on record?
**A.** 64 µg/mL

**Q.** What about the MIC (E. coli 23502; [5]) of the same compound?
**A.** 64 µg/mL

**Q.** What about the MBC (S. aureus [1]; free AMP, TSB, 4 × 10^5 cfu/ml) of the same compound?
**A.** >512 µg/mL

**Q.** What about the MIC (S. aureus [1]; free AMP, TSB, 4 × 10^5 cfu/ml) of the same compound?
**A.** >512 µg/mL

**Q.** And the “time stable in urine” value [3]?
**A.** 6 days

**Q.** And the “time stable in serum” value ([3]; single AMP coated by SDS on polystyrene)?
**A.** not stable

**Q.** With “RGLRRLGRKIVHVVKKYLPTVLRIIRIA-NH2 [SMAP28-3]” as the compound, how does the “time stable in human urine” value [3] read?
**A.** at least three

**Q.** For “RGLRRLGRKIVHVVKKYLPTVLRIIRRL-NH2 [SMAP28-3 + 2]”, which MBC (E. coli 23502; 23502) is on record?
**A.** 8 µg/mL

**Q.** And the MIC (E. coli 23502; 23502)?
**A.** 4 µg/mL

**Q.** What about the MBC (S. aureus [1]) of the same compound?
**A.** 32 µg/mL

**Q.** What about the MIC (S. aureus [1]) of the same compound?
**A.** 32 µg/mL

**Q.** What about the “time stable in human urine” value [3] of the same compound?
**A.** at least three

**Q.** And the “time stable in 10% FBS” value [3]?
**A.** one

**Q.** With “H-FIHHIIGGLFSAGKAIHRLIRRRRR-OH [TP4, antimicrobial peptide Piscidins 4]” as the compound, how does the stability in urine ([3]; coated by SDBS on microplates) read?
**A.** stable in urine

**Q.** And the stability in urine ([3]; coated by SOS or SDSn on microplates)?
**A.** not those coated by SOS or SDSn

**Q.** And the “time stable in human urine” value [3]?
**A.** at least three

— patent publication US12144910B2, “Methods of coating antimicrobial peptides on the biomaterial and the biomaterial coated thereby” (priority 2019, dated 2024)
